Results on three compounds are retold here after patent US5434295A (priority 1994, dated 1995).

Data set [1] relates to intraocular pressure (IOP). As to the kind of experiment: Ocular hypotensive activity (intraocular pressure) in albino rabbits. It is filed as in vivo, albino rabbit. The settings on record: for Max ΔIOP: ** drug vs. vehicle P < 0.01. The method, then: Bicyclic compounds of the present invention were also tested for IOP lowering effects.
(§1) Sci., 82, 1069-1079 (1993).
The phospholipids and HU-259 were dissolved in the stabilized oily phase. The other excipients were dissolved in the aqueous phase. Both phases were heated separately to 70° C. and dispersed by a magnetic stirrer. Emulsification was completed using a "high speed mixer" for 5 min at 85° C. The resulting emulsion was cooled rapidly below 20° C. and homogenized using a two-stage homogenizing valve assembly (Gaulin Homogenizer, APV Gaulin, Hilversum, The Netherlands) for 5 min. All the manufacturing procedures were carried out under aseptic conditions and a nitrogen atmosphere. The pH was adjusted to 7.4 using a sodium hydroxide solution (10%). The final fine emulsion was filtered to achieve sterility and stored in ampoules. A typical formulation (%, w/w) consisted of the following: HU-259, 0.2%; oily phase, 20.0%; purified fractionated egg phospholipids, 1.2%; nonionic emulsifier, 2%; glycerin, 2.25%; α-tocopherol, 0.02%; methyl and butyl p-hydroxy- benzoic ester, 0.3 and 0.075%, respectively; and water for injection, to 100.0 g. The control emulsion vehicle was prepared using identical experimental conditions but without drug.
IOP was measured by using a pneumatonometer (Digilab T30). Pressure readings were calibrated for verification every 6 h. One drop (50 μl) of local anesthetic (Benoxinate HCl, 0.4% Fischer [Isr] diluted 1:3 with sterile saline) was instilled into each eye prior to IOP measurements.

In data set [2] the test system is acetylcholine-muscarinic receptor. Type of data set: binding, rat. The settings on record: 100 μM analogue.
The test system of a further data set is GABA receptors. Briefly: Effect on GABA responses in oocytes. It is filed as biochemical, rat.
The subject of the next data set is AMPA/kainate receptors. As to the kind of experiment: Effect on kainate responses in oocytes. Type of data set: biochemical, rat.
The subject of data set [3] is voltage-dependent P-type calcium channels. Briefly: Inhibition of voltage-dependent P-type calcium channels expressed in oocytes. It is filed as biochemical, rat.
The nature of data set [4]: Lipophilicity / solubility (statement). It is filed as physicochemical. As for the experimental part: as §1
Several NMDA receptor blockers were tested. These compounds have […] and have to be dissolved in 100% dimethyl sulfoxide (DMSO) and diluted for use in ND-96 that contained 1% DMSO. Therefore, the effect of 1% DMSO on the response to 10^-4 M NMDA and 5×10^-6 M glycine was examined. DMSO had no effect on NMDA response in three different cells.

In the next data set the test system is hypobaric anoxia in mice. As to the kind of experiment: Survival of mice exposed to hypobaric anoxia. Type of data set: in vivo. The settings on record: 200 mmHg, 5 mg/kg i.p. in MCT oil, 45 min before. As for the experimental part: Protection against hypobaric anoxia in mice: Exposure of mice to a hypobaric (200 mmHg) atmosphere reduces the amount of oxygen available to the animals and results in death within 1-2 minutes in untreated mice. Pretreatment with compounds that can counteract the effects of oxygen deprivation prolong (double or more) the survival time of mice subjected to this treatment. The increase in survival time is a measure of the potency of the compounds in counteracting anoxic damage in vivo.
Hypobaric Anoxia was used as a system for testing the neuroprotective effects of test compounds, HU-270 and HU-271. The experimental paradigm was derived from that described by Gotti and Depoortere, Congres de Circ. Cerebrale, Toulouse, 105-107 (1979). Briefly, mice in groups of 5 were placed in a chamber which was equilibrated at an atmospheric pressure of 200 mmHg (by evacuation via a vacuum pump). The mice were observed until they stopped breathing and the time was recorded for each mouse. The test compounds were administered 45 min before introducing the animals into the chamber. In all cases the experiment was performed in a masked vehicle controlled study to avoid bias on the part of the observer. Each mouse received the drug dissolved in MCT oil intraperitoneally at a dose of 5 mg/kg, or the vehicle alone (MCT oil, 5 ml/kg).

Data set [5] has as its system quisqualate-induced toxicity in primary cerebral cortical cell cultures. As to the kind of experiment: Protection of cortical neurons in culture from quisqualate-induced toxicity. The settings on record: Rattus norvegicus, Cortical neurone; 10 μM compound; quisqualate 500 μM; read-out: % of cells rescued from quisqualate-induced toxicity. It is filed as cell-based. As for the experimental part:
The neuroprotective effects of the compounds of the invention were tested on neurons exposed to various excitotoxins in culture. The compounds tested included HU-259, HU-260, HU-270 and HU-271, which were all shown to have NMDA antagonist properties in mice (Example 13).
The test drugs were examined for their ability to protect neurons in culture from toxic effects of agonists of the different glutamate receptor subtypes (agonists of ionotropic and/or metabotropic glutamate receptors), e.g. NMDA, AMPA, kainate and quisqualate. The culture conditions and assay conditions were all performed as described in Eshhar et al. (NeuroReport 5, No. 3, 1993). In brief, primary cerebral cortical cell cultures were prepared from 18-20 day old rat fetuses by enzymatic dissociation. Resulting cell suspensions were plated on confluent cortical glial cell feder layer (prepared 2 weeks earlier by a similar method). […] Cell viability was determined morphologically following neuron specific enolase immunostaining of cells using the ABC biotin-avidin complex method, and determined quantitatively by measuring the extent of mitochondrial activity in living cells using the XTT-based assay. […] The density of color formation (O.D.), which is proportional to mitochondrial activity, was measured by a plate ELISA reader. The extent of neuroprotectant activity is expressed as % of cells rescued by the drugs tested.

“Also recorded” adds a separate entry of the source.

In the case of `CCCCCCC(C)(C)c1cc(OC(C)=O)c([C@H]2C=C(C(=O)O)[C@H]3C[C@@H]2C3(C)C)c(OC(C)=O)c1` [(+)-4-[4-DMH-2,6 diacetoxyphenyl]-2-carboxy-6,6-dimethylbicyclo[3.1.1]hept-2-en], the figures for the “AUC (from instillation of treatment until return to baseline IOP)” value in data set [1] (contralateral eye) and in data set [1] (treated eye) were -7.8 ± 8.1 mmHg × hrs and -10.9 ± 10.9 mmHg × hrs, respectively. Also, the “contralateral eye pressure lowered by” value in data set [1] (contralateral eye, single dose application) was 2.5±0.9 mmHg. Moreover, the “Max ΔIOP” value in data set [1] (contralateral eye) is on record as -2.5 ± 0.9 mmHg; in data set [1] (treated eye, single dose 0.2% emulsion), -3.2 ± 0.7 mmHg. For the same compound, in data set [1] (post-application), the “time of maximal ocular hypotensive effect” value is recorded as 3 h. Besides, the “time at which pressure returned to baseline level” value in data set [1] (post-treatment) is 7 h. Besides, the “duration of statistically significant reduction in IOP compared to vehicle” value in data set [1] (single dose 30 microliter 0.2% emulsion) is listed as “over five hours”. Also, the “Pressure dropped by (maximal ocular hypotensive effect)” value in data set [1] (treated right eye, 3 h post-application, P<0.01) was found to be 3.2±0.7 mmHg. In addition, the “% inhibition of tritiated ligand binding to membranes, 3[H]QNB” value in data set [2] was found to be 98.0%. Besides, the “effect on GABA responses” value with GABA receptors is listed as “no effect”. Besides, the “effect on kainate responses” value in the data set with AMPA/kainate receptors is on record as “no effect”. Moreover, the “inhibition of activity of voltage-dependent P-type calcium channels” value in data set [3] is “did not inhibit”. The lipophilicity entry in data set [4] was “very lipophilic”.

For the compound `CCCCCCC(C)(C)c1cc(OC(C)=O)c([C@H]2C=C(C(=O)N(CC)CC)[C@H]3C[C@@H]2C3(C)C)c(OC(C)=O)c1` [HU-270], in the data set with hypobaric anoxia in mice, the “survival of mice exposed to hypobaric anoxia” value is “increased survival; also recorded: statistically significant increase of survival time”.

On to `CCCCCCC(C)(C)c1cc(OC(C)=O)c([C@H]2C=C(C(=O)NCCO)[C@H]3C[C@@H]2C3(C)C)c(OC(C)=O)c1` [HU-271], for which the inhibition at 10 µM in data set [5] was 37%. For the same compound, the “% inhibition of tritiated ligand binding to membranes, 3[H]QNB” value in data set [2] came to 98.3%. The “survival of mice exposed to hypobaric anoxia” value in the data set on hypobaric anoxia in mice is reported as “increased survival; also recorded: statistically significant increase of survival time”.
